What was measured:
[1] = tested on: D2 receptors; set-up: method as in PMID 34451841; settings: previous studies; cited from earlier work
[2] = biological target: α2-adrenoceptor; test: α2-adrenoceptor radioligand binding assay ([3H]-clonidine, rat cerebral cortex)
Description: (§1) The α1-, α2-, and β1-adrenoceptor radioligand binding assay was carried out on the rat cerebral cortex. […] The brains were homogenized using ULTRA-TURRAX homogenizer in 10 mL of an ice-cold 50 mM Tris–HCl buffer (pH 7.6). Homogenates were centrifuged at 20,000× g for 20 min (0–4 °C). Next, the cell pellet was resuspended in the Tris–HCl buffer and centrifuged again. Radioligand binding assays were performed in plates (MultiScreen/Millipore). The final incubation mixture (volume 300 μL) consisted of 240 μL of the tissue suspension, 30 μL of radioligand solution, and 30 μL of the buffer containing 7–8 concentrations of the tested compound. […] The incubation was terminated by rapid filtration through Whatman GF/C filters using a vacuum manifold (Millipore). The filters were then washed twice with the assay buffer and placed in scintillation vials with a liquid scintillation cocktail. […] All the assays were made in duplicates and the inhibitory constants (Ki) were estimated.

[3] = tested on: adrenaline-induced arrhythmia in rats; test: Prophylactic antiarrhythmic activity in adrenaline-induced arrhythmia; type: in vivo, rat
Description: The experiment was carried out according to the method described by Szekeres and Papp. Normotensive rats were anesthetized with thiopental (75 mg/kg ip). Adrenaline was administered at the dose of 20 µg/kg to induce heart rhythm disturbances. The studied compound was injected intraperitoneally 45 min before the arrhythmogen. The electrocardiogram (ECG) was recorded during the first 2 min and in the 5th, 10th, and 15th min after the adrenaline injection. The criterion of prophylactic antiarrhythmic activity was the lack of extrasystoles and inhibition of cardiac arrhythmia in comparison with the control group. The ED50 (a dose producing a 50% inhibition of ventricular contractions) was determined by computer log-probit analysis according to Litchfield and Wilcoxon.

[4] = tested on: mice; set-up: method as in PMID 34451841; settings: previous studies; cited from earlier work
[5] = tested on: α1-adrenergic receptors; test: Influence on blood vasopressor response to adrenaline, noradrenaline and methoxamine in rats; type: in vivo; settings: rat, 1.25 mg/kg iv, 5 min after administration
Description: To establish agonistic or antagonistic toward α1-adrenergic receptors, we studied the influence of the studied compound on the pressor response to adrenaline (2 µg/kg), noradrenaline (2 µg/kg), and methoxamine (150 µg/kg). Normotensive rats were anesthetized with thiopental (75 mg/kg ip). The right carotid artery was cannulated with a polyethylene tube filled with heparin solution to allow pressure measurements, using a Datamax apparatus (Columbus Instruments, Columbus, OH, USA). The experiment was carried out after 15 min of the stabilization period. The pressor response to adrenaline, noradrenaline, and methoxamine was measured before (control) and 5 min after the administration of the tested compound.

[6] = tested on: 5-HT1A receptors; set-up: method as in PMID 34451841; settings: previous studies; cited from earlier work
[7] = biological target: T1, β1-adrenergic receptor (Rattus norvegicus, UniProt P18090); test: β1-adrenoceptor radioligand binding assay ([3H]-CGP-12177, rat cerebral cortex)
T1 construct: from tissue; host or cells: rat cerebral cortex homogenate
Description: as §1

[8] = tested on: normotensive rats; test: Influence on blood pressure in normotensive rats; type: in vivo, rat
Description: Normotensive rats were anesthetized with thiopental (75 mg/kg ip). The right carotid artery was cannulated with a polyethylene tube filled with heparin solution to allow pressure measurements, using a Datamax apparatus (Columbus Instruments, Columbus, OH, USA). The tested compound was administered intraperitoneally after 15 min of stabilization period and its effect on blood pressure was measured.

[9] = biological target: α1-adrenoceptor; test: α1-adrenoceptor radioligand binding assay ([3H]-prazosin, rat cerebral cortex); settings: rat cortex tissue
Description: The α1-, α2-, and β1-adrenoceptor radioligand binding assay was carried out on the rat cerebral cortex. [^3H]-prazosin (19.5 Ci/mmol, α1-adrenoceptor), [^3H]-clonidine (70.5 Ci/mmol, α2-adrenoceptor), and [^3H]-CGP-12177 (48 Ci/mmol, β1-adrenergic receptor) were used as specific ligands. The brains were homogenized using ULTRA-TURRAX homogenizer in 10 mL of an ice-cold 50 mM Tris–HCl buffer (pH 7.6). Homogenates were centrifuged at 20,000× g for 20 min (0–4 °C). Next, the cell pellet was resuspended in the Tris–HCl buffer and centrifuged again. Radioligand binding assays were performed in plates (MultiScreen/Millipore). The final incubation mixture (volume 300 μL) consisted of 240 μL of the tissue suspension, 30 μL of radioligand solution, and 30 μL of the buffer containing 7–8 concentrations of the tested compound. […] The incubation was terminated by rapid filtration through Whatman GF/C filters using a vacuum manifold (Millipore). The filters were then washed twice with the assay buffer and placed in scintillation vials with a liquid scintillation cocktail. Radioactivity was measured in a WALLAC 1409 DSA liquid scintillation counter (Perkin Elmer, Waltham, MA, USA). All the assays were made in duplicates and the inhibitory constants (Ki) were estimated.

[10] = 1.25 mg/kg ip, from 5 min after injection

T1 sequence (P18090 whole entry): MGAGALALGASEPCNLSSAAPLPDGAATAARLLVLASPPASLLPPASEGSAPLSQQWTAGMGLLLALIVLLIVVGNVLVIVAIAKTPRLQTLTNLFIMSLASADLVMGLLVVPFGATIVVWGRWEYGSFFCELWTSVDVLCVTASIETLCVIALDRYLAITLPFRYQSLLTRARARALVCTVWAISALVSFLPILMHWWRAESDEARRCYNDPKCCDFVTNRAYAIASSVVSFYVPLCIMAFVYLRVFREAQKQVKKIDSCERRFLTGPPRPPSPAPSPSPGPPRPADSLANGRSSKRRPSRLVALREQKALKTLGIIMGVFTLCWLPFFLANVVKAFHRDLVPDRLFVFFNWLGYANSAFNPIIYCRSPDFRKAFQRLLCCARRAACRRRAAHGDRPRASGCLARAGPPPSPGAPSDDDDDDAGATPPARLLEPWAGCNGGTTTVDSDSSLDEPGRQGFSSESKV

## CCC(CN1CCN(c2ccccc2OC)CC1)NCCCOc1c(C)cccc1C.Cl.Cl (stereo not drawn) [HBK-10, N-(3-(2,6-dimethylphenoxy)propyl)-1-(4-(2-methoxyphenyl)piperazin-1-yl)butan-2-amine dihydrochloride]
[1]
  properties at D2 receptors: antagonistic properties
[2]; rat cortex tissue, [3H]-clonidine
  Adrenergic Receptors—pKi α2: 5.72
[2]; rat cortex, α1 vs α2
  affinity towards α2-adrenoceptor lower compared with the α1 receptor: over 600 fold
[3]; HBK-10 ip vs carvedilol iv
  ED50 lower than for carvedilol: ~3 fold
[3]; rat, 0.0625 mg/kg ip 45 min before adrenaline 20 μg/kg iv
  Extrasystoles (%): 83.3%
[3]; rat, 0.125 mg/kg ip 45 min before adrenaline 20 μg/kg iv
  Extrasystoles (%): 50%
[3]; rat, 0.25 mg/kg ip 45 min before adrenaline 20 μg/kg iv
  Extrasystoles (%): 16.7%
[3]; rat, ip 45 min before adrenaline 20 μg/kg iv, read-out: ED50 (extrasystoles caused by adrenaline)
  ED50: 0.125 mg/kg
[4]
  antidepressant-like effect: antidepressant-like effect
[5]; adrenaline 2 μg/kg
  attenuation of adrenaline pressor response: 77.2%
[5]; methoxamine 150 μg/kg
  attenuation of methoxamine pressor response: 77.4%
[5]; noradrenaline 2 μg/kg
  attenuation of noradrenaline pressor response: 32.5%
[6]
  properties at 5-HT1A receptors: antagonistic properties
[7]; rat cortex tissue, [3H]-CGP-12177, read-out: Adrenergic Receptors—pKi β1 (converted)
  Ki: 3.02 µM
[7]; rat cortex, α1 vs β1
  affinity towards β1-adrenoceptor lower compared with the α1 receptor: > 1000 fold
[8]; 0.625 mg/kg ip
  effect on diastolic blood pressure: did not affect
  effect on systolic blood pressure: did not affect
[8]; [10]
  reduction of diastolic blood pressure: 12.5–18.3%
  reduction of systolic blood pressure: 11.2–18.3%
[8]; single ip administration
  dose reducing blood pressure relative to median effective dose in adrenaline-induced model: 10 fold
[9]
  Adrenergic Receptors—pKi α1: 8.55

From PMC9609429 (Pharmaceuticals, 2022)
